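48-hour exposure; five concentrations; linearly interpolated endpoints. The concentration for 50% growth inhibition is given as GI50. TGI denotes the concentration required for complete inhibition of growth.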
Columns and labels:
Experiment in all cases: growth of human tumour cells (NCI), 48 h
NCI-H522 lung = system: NCI-H522 lung
HCT-116 colon = system: HCT-116 colon
CCRF-CEM leukemia = system: CCRF-CEM leukemia
NCI/ADR-RES ovarian = system: NCI/ADR-RES ovarian
EKVX NSCLC = system: EKVX NSCLC
DU-145 prostate = system: DU-145 prostate
OVCAR-5 ovarian = system: OVCAR-5 ovarian
UACC-257 melanoma = system: UACC-257 melanoma
RPMI-8226 leukemia = system: RPMI-8226 leukemia
OVCAR-8 ovarian = system: OVCAR-8 ovarian

Row | Structure (SMILES) | GI50 (NCI-H522 lung) [µM] | TGI (NCI-H522 lung) [µM] | GI50 (HCT-116 colon) [µM] | TGI (HCT-116 colon) [µM] | GI50 (CCRF-CEM leukemia) [µM] | TGI (CCRF-CEM leukemia) [µM] | GI50 (NCI/ADR-RES ovarian) [µM] | TGI (NCI/ADR-RES ovarian) [µM] | GI50 (EKVX NSCLC) [µM] | TGI (EKVX NSCLC) [µM] | GI50 (DU-145 prostate) [µM] | TGI (DU-145 prostate) [µM] | GI50 (OVCAR-5 ovarian) [µM] | TGI (OVCAR-5 ovarian) [µM] | GI50 (UACC-257 melanoma) [µM] | TGI (UACC-257 melanoma) [µM] | GI50 (RPMI-8226 leukemia) [µM] | TGI (RPMI-8226 leukemia) [µM] | GI50 (OVCAR-8 ovarian) [µM] | TGI (OVCAR-8 ovarian) [µM]
1 | COc1ccccc1NC(=O)c1cc2cc(Br)ccc2cc1O | 1.86 | 7 | 2.8 | 10.3 | 2.62 | 9.5 | 2.75 | 12.1 | 1.77 | 8.1 | 3.28 | 14 | 3.48 | 12.9 | 1.97 | 5.3 | 1.45 | 4.66 | 3 | 14.7
2 | O=C(Nc1nn2c(-c3cc(C(F)(F)F)cc(C(F)(F)F)c3)nnc2s1)C1CCCC1 | 0.277 | 2.29 | 0.518 | > 100 | 0.459 | > 82.1 | 0.641 | > 28.5 | 0.366 | > 25.2 | 1.95 | > 100 | 2.63 | > 100 | 0.419 | 3.49 | 0.368 | > 25.6 | 1.18 | > 100
3 | COC(=O)c1cc2oc(/C=C3/SC(=S)N(NC(C)=O)C3=O)cc2n1C | 16.4 | 55.4 | 12.1 | 31.1 | 11.8 | 76 | 15.3 | 51.4 | 11.3 | 40.5 | 8.76 | 25.4 | 21.7 | 54.9 | 30.1 | > 100 | 24 | > 100 | 23.1 | 99.1
4 | Fc1cc(-c2nnc3n2N=C(c2ccc(Cl)cc2)CS3)c(Cl)cc1Cl | 2.79 | – | 2.36 | 5.85 | 0.328 | 1.13 | 9.29 | 36.8 | 23.5 | 48.1 | 6.47 | 17.1 | 15.5 | 32.7 | 14.7 | 28.8 | – | – | 15.3 | 44.3
5 | Cc1cc2c(cc1C)[n+](=O)c(C(=O)c1ccccc1)c(C(F)F)n2[O-] | 7.82 | 27.2 | 30.8 | > 100 | 5.12 | 29.6 | 36.3 | > 100 | 9.43 | 44.6 | 10.5 | 46.4 | 36.4 | > 100 | – | – | 5.81 | 43.9 | 7.11 | > 100
6 | CCCCCCCCCCSC(=N)N (tested in a mixture with another compound) | 1.91 | 4.68 | 2.6 | 9.55 | 3.65 | 17 | 6.29 | 25.6 | 6.89 | 23.7 | 4.47 | 16.1 | 13.1 | 32.7 | 2.46 | 5.93 | 2.53 | 6.31 | 3.05 | 9.64
7 | CN1CCN(c2ccc(Nc3ncc(Cl)c(NC[C@@H]4CCCO4)n3)cc2)CC1 | 1.52 | 10.9 | – | – | 0.466 | 9.04 | 3.15 | > 100 | 1.69 | 5.74 | 1.96 | > 100 | 1.18 | > 100 | 6.46 | 32.6 | 1.48 | 5.63 | 4.02 | > 100
8 | Cc1ccc(-c2nc(N3CCNCC3)c3oc(-c4ccc(C)cc4)nc3n2)cc1 | 14.2 | 36.1 | – | – | 1.49 | 4.04 | 2 | 3.81 | > 36.3 | > 51.7 | 1.98 | 3.76 | 5.21 | 17.9 | > 45.7 | > 65.9 | 2.48 | 5.28 | 2.13 | 4.63
9 | CC#Cc1ccc(-c2ccccc2)s1 | – | > 100 | – | > 100 | – | > 100 | – | > 100 | – | > 100 | – | > 100 | – | > 100 | – | > 100 | – | – | – | > 100
10 | Cc1nnc2ccnn2c1C | 66.3 | > 100 | > 100 | > 100 | > 100 | > 100 | 20.5 | 43.4 | – | 0.962 | > 100 | > 100 | 17.6 | 34.6 | – | – | > 100 | > 100 | > 100 | > 100
11 | COc1cc(-c2nc3sccn3c2-c2ccnc(NCCNS(=O)(=O)c3ccc(F)cc3)n2)ccc1F | 2.12 | > 100 | 0.362 | > 100 | 0.643 | > 100 | 1.94 | > 100 | 3.4 | > 100 | 2.42 | > 100 | 6.51 | > 100 | 3.88 | > 100 | – | – | 2.12 | > 100

Reference: PubChem BioAssay (NCI)
